Assay results from patent US11260049B2, “TRPV4 antagonists” (GlaxoSmithKline Intellectual Property (No. 2) Limited, priority 2016, dated 2022).
pIC50: −log10 of the molar value.

Molecular target: human TRPV4 (Homo sapiens (Human), UniProt Q9HBA0)
Assay: FLIPR assay for hTRPV4 expressed in BHK cells
Assay type: cell-based
Settings: inhibition of Agonist Compound (EC80)-induced calcium signal; BHK/AC9 cells expressing human TRPV4; read-out: IC50
Outline: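 BHK/AC9 cells transduced with BacMam human TRPV4 (MOI 78), 15,000 cells/well, cultured 24 h at 37 °C. Loaded with 2 μM Fluo-4 AM and 500 μM Brilliant Black in HBSS for 1–1.5 h at room temperature in the dark. Intracellular calcium influx monitored by fluorescence.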

Chain of human TRPV4 (Q9HBA0 whole entry): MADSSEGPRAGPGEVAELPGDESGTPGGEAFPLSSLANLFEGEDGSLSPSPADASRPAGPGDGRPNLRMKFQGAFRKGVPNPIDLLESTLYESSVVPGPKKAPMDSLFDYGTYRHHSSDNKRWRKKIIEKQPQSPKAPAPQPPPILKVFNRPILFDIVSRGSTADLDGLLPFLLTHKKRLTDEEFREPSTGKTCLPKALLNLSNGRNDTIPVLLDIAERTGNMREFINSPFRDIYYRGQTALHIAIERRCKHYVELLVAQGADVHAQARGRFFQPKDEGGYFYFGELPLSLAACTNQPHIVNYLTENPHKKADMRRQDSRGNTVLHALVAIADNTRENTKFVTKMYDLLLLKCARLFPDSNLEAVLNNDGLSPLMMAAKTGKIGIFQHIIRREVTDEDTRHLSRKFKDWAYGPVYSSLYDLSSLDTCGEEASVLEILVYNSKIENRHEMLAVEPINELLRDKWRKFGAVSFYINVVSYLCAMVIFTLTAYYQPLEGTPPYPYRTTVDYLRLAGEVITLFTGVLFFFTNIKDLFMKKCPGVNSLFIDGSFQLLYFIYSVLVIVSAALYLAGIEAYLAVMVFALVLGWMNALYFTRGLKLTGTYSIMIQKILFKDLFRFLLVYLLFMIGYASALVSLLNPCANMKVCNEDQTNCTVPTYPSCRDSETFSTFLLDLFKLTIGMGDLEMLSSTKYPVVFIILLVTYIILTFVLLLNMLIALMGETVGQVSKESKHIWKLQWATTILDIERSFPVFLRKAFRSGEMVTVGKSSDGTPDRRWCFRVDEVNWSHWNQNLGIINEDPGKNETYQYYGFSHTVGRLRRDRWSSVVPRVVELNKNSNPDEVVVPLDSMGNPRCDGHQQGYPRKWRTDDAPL

| Compound | pIC50 |
| --- | --- |
| O=S(=O)(c1ccc(Cl)cc1)[C@H]1CN(S(=O)(=O)c2cccnc2OC(F)F)C[C@@]1(O)CO [Example 67, (3R,4S)-4-((4-chlorophenyl)sulfonyl)-1-((2-(difluoromethoxy)pyridin-3-yl)sulfonyl)-3-(hydroxymethyl)pyrrolidin-3-ol] | 7.00 to 8.00 |
| N#Cc1ccc(S(=O)(=O)N2C[C@H](S(=O)(=O)c3nccs3)[C@](O)(CO)C2)c(Cl)c1 [Example 68, 3-chloro-4-(((3R,4S)-3-hydroxy-3-(hydroxymethyl)-4-(thiazol-2-ylsulfonyl)pyrrolidin-1-yl)sulfonyl)benzonitrile] | 7.00 to 8.00 |
| N#Cc1ccc(S(=O)(=O)[C@H]2CN(S(=O)(=O)c3ccc(C(F)(F)F)cc3F)C[C@@]2(O)CO)cc1F [Example 69, 2-fluoro-4-(((3S,4R)-1-((2-fluoro-4-(trifluoromethyl)phenyl)sulfonyl)-4-hydroxy-4-(hydroxymethyl)pyrrolidin-3-yl)sulfonyl)benzonitrile] | 7.00 to 8.00 |
| Cc1cc(C#N)ccc1S(=O)(=O)N1C[C@H](S(=O)(=O)c2ccc(C#N)c(F)c2)[C@](O)(CO)C1 [Example 70, 4-(((3S,4R)-1-((4-cyano-2-methylphenyl)sulfonyl)-4-hydroxy-4-(hydroxymethyl)pyrrolidin-3-yl)sulfonyl)-2-fluorobenzonitrile] | 8.00 to 10.00 |
| Cc1cc(C(F)(F)F)ccc1S(=O)(=O)N1C[C@H](S(=O)(=O)c2ccc(C#N)c(F)c2)[C@](O)(CO)C1 [Example 71, 2-fluoro-4-(((3S,4R)-4-hydroxy-4-(hydroxymethyl)-1-((2-methyl-4-(trifluoromethyl)phenyl)sulfonyl)pyrrolidin-3-yl)sulfonyl)benzonitrile] | 7.00 to 8.00 |
| Cc1nc(C(F)(F)F)ccc1S(=O)(=O)N1C[C@H](S(=O)(=O)c2ccc(C#N)c(F)c2)[C@](O)(CO)C1 [Example 72, 2-fluoro-4-(((3S,4R)-4-hydroxy-4-(hydroxymethyl)-1-((2-methyl-6-(trifluoromethyl)pyridin-3-yl)sulfonyl)pyrrolidin-3-yl)sulfonyl)benzonitrile] | 7.00 to 8.00 |
| N#Cc1ccc(S(=O)(=O)N2C[C@H](S(=O)(=O)c3ncc(Cl)s3)[C@](O)(CO)C2)c(Cl)c1 [Example 73, 3-chloro-4-(((3R,4S)-4-((5-chlorothiazol-2-yl)sulfonyl)-3-hydroxy-3-(hydroxymethyl)pyrrolidin-1-yl)sulfonyl)benzonitrile] | 7.00 to 8.00 |
| N#Cc1ccc(S(=O)(=O)N2C[C@H](S(=O)(=O)c3ccc(Br)cc3)[C@](O)(CO)C2)c(Cl)c1 [Example 74, 4-(((3R,4S)-4-((4-bromophenyl)sulfonyl)-3-hydroxy-3-(hydroxymethyl)pyrrolidin-1-yl)sulfonyl)-3-chlorobenzonitrile] | 8.00 to 10.00 |
| N#Cc1ccc(S(=O)(=O)[C@H]2CN(S(=O)(=O)c3ccc(Cl)cc3Cl)C[C@]2(O)CO)cc1F [Example 75, 4-(((3S,4S)-1-((2,4-dichlorophenyl)sulfonyl)-4-hydroxy-4-(hydroxymethyl)pyrrolidin-3-yl)sulfonyl)-2-fluorobenzonitrile] | 8.00 to 10.00 |
| O=S(=O)(c1ccc(Cl)c(F)c1)[C@H]1CN(S(=O)(=O)c2ccc(Cl)cc2Cl)C[C@]1(O)CO [Example 76, (3S,4S)-4-((4-chloro-3-fluorophenyl)sulfonyl)-1-((2,4-dichlorophenyl)sulfonyl)-3-(hydroxymethyl)pyrrolidin-3-ol] | 7.00 to 8.00 |
| N#Cc1cc(C(F)(F)F)ccc1S(=O)(=O)N1C[C@H](S(=O)(=O)c2ccc(F)c(F)c2)[C@@](O)(CO)C1 [Example 77, 2-(((3S,4S)-4-((3,4-difluorophenyl)sulfonyl)-3-hydroxy-3-(hydroxymethyl)pyrrolidin-1-yl)sulfonyl)-5-(trifluoromethyl)benzonitrile] | 7.00 to 8.00 |
| O=S(=O)(c1ccc(Cl)c(F)c1)[C@H]1CN(S(=O)(=O)c2ccc(C(F)(F)F)cc2Cl)C[C@]1(O)CO [Example 78, (3S,4S)-4-((4-chloro-3-fluorophenyl)sulfonyl)-1-((2-chloro-4-(trifluoromethyl)phenyl)sulfonyl)-3-(hydroxymethyl)pyrrolidin-3-ol] | 7.00 to 8.00 |
| N#Cc1cc(F)c(S(=O)(=O)[C@H]2CN(S(=O)(=O)c3ccc(Cl)cc3Cl)C[C@]2(O)CO)cc1F [Example 79, 4-(((3S,4S)-1-((2,4-dichlorophenyl)sulfonyl)-4-hydroxy-4-(hydroxymethyl)pyrrolidin-3-yl)sulfonyl)-2,5-difluorobenzonitrile] | 7.00 to 8.00 |
| N#Cc1ccc(S(=O)(=O)[C@H]2CN(S(=O)(=O)c3ccc(C(F)(F)F)cc3Cl)C[C@]2(O)CO)cc1Cl [Example 80, 2-chloro-4-(((3S,4S)-1-((2-chloro-4-(trifluoromethyl)phenyl)sulfonyl)-4-hydroxy-4-(hydroxymethyl)pyrrolidin-3-yl)sulfonyl)benzonitrile] | 7.00 to 8.00 |
| N#Cc1ccc(S(=O)(=O)N2C[C@H](S(=O)(=O)c3ccc(Br)cn3)[C@@](O)(CO)C2)c(Cl)c1 [Example 81, 4-(((3S,4S)-4-((5-bromopyridin-2-yl)sulfonyl)-3-hydroxy-3-(hydroxymethyl)pyrrolidin-1-yl)sulfonyl)-3-chlorobenzonitrile] | 7.00 to 8.00 |
| N#Cc1ccc(S(=O)(=O)[C@H]2CN(S(=O)(=O)c3ccc(Cl)cc3Cl)C[C@@]2(O)CO)cc1 [Example 82, 4-(((3S,4R)-1-((2,4-dichlorophenyl)sulfonyl)-4-hydroxy-4-(hydroxymethyl)pyrrolidin-3-yl)sulfonyl)benzonitrile] | 8.00 to 10.00 |
| N#Cc1ccc(S(=O)(=O)[C@H]2CN(S(=O)(=O)c3ccc(Cl)cc3Cl)C[C@@]2(O)CO)cc1F [Example 83, 4-(((3S,4R)-1-((2,4-dichlorophenyl)sulfonyl)-4-hydroxy-4-(hydroxymethyl)pyrrolidin-3-yl)sulfonyl)-2-fluorobenzonitrile] | 8.00 to 10.00 |
| N#Cc1ccc(S(=O)(=O)[C@H]2CN(S(=O)(=O)c3ccc(Cl)cc3C#N)C[C@@]2(O)CO)cc1 [Example 84, 5-chloro-2-(((3R,4S)-4-((4-cyanophenyl)sulfonyl)-3-hydroxy-3-(hydroxymethyl)pyrrolidin-1-yl)sulfonyl)benzonitrile] | 8.00 to 10.00 |
| O=S(=O)(c1ccc(F)c(F)c1)[C@H]1CN(S(=O)(=O)c2ccc(Cl)cc2Cl)C[C@@]1(O)CO [Example 85, (3R,4S)-1-((2,4-dichlorophenyl)sulfonyl)-4-((3,4-difluorophenyl)sulfonyl)-3-(hydroxymethyl)pyrrolidin-3-ol] | 7.00 to 8.00 |
| N#Cc1ccc(S(=O)(=O)[C@H]2CN(S(=O)(=O)c3ccc(Cl)cc3Cl)C[C@@]2(O)CO)c(F)c1 [Example 86, 4-(((3S,4R)-1-((2,4-dichlorophenyl)sulfonyl)-4-hydroxy-4-(hydroxymethyl)pyrrolidin-3-yl)sulfonyl)-3-fluorobenzonitrile] | 7.00 to 8.00 |
| N#Cc1c(F)cc(S(=O)(=O)[C@H]2CN(S(=O)(=O)c3ccc(Cl)cc3Cl)C[C@@]2(O)CO)cc1F [Example 87, 4-(((3S,4R)-1-((2,4-dichlorophenyl)sulfonyl)-4-hydroxy-4-(hydroxymethyl)pyrrolidin-3-yl)sulfonyl)-2,6-difluorobenzonitrile] | 8.00 to 10.00 |
| O=S(=O)(c1ccc(Cl)c(F)c1)[C@H]1CN(S(=O)(=O)c2ccc(Cl)cc2Cl)C[C@@]1(O)CO [Example 88, (3R,4S)-4-((4-chloro-3-fluorophenyl)sulfonyl)-1-((2,4-dichlorophenyl)sulfonyl)-3-(hydroxymethyl)pyrrolidin-3-ol] | 8.00 to 10.00 |
| N#Cc1ccc(S(=O)(=O)[C@H]2CN(S(=O)(=O)c3ccc(C(F)(F)F)cc3Cl)C[C@@]2(O)CO)cc1 [Example 89, 4-(((3S,4R)-1-((2-chloro-4-(trifluoromethyl)phenyl)sulfonyl)-4-hydroxy-4-(hydroxymethyl)pyrrolidin-3-yl)sulfonyl)benzonitrile] | 7.00 to 8.00 |
| N#Cc1ccc(S(=O)(=O)[C@H]2CN(S(=O)(=O)c3ccc(C(F)(F)F)cc3Cl)C[C@]2(O)CO)cc1 [Example 90, 4-(((3S,4S)-1-((2-chloro-4-(trifluoromethyl)phenyl)sulfonyl)-4-hydroxy-4-(hydroxymethyl)pyrrolidin-3-yl)sulfonyl)benzonitrile] | 7.00 to 8.00 |
| N#Cc1c(F)cc(S(=O)(=O)[C@H]2CN(S(=O)(=O)c3ccc(C(F)(F)F)cc3Cl)C[C@@]2(O)CO)cc1F [Example 91, 4-(((3S,4R)-1-((2-chloro-4-(trifluoromethyl)phenyl)sulfonyl)-4-hydroxy-4-(hydroxymethyl)pyrrolidin-3-yl)sulfonyl)-2,6-difluorobenzonitrile] | 7.00 to 8.00 |
| N#Cc1ccc(S(=O)(=O)[C@H]2CN(S(=O)(=O)c3ccc(C(F)(F)F)cc3Cl)C[C@@]2(O)CO)cn1 [Example 92, 5-(((3S,4R)-1-((2-chloro-4-(trifluoromethyl)phenyl)sulfonyl)-4-hydroxy-4-(hydroxymethyl)pyrrolidin-3-yl)sulfonyl)picolinonitrile] | 7.00 to 8.00 |
| N#Cc1cc(C(F)(F)F)ccc1S(=O)(=O)N1C[C@H](S(=O)(=O)c2ccc(F)c(F)c2)[C@](O)(CO)C1 [Example 93, 2-(((3R,4S)-4-((3,4-difluorophenyl)sulfonyl)-3-hydroxy-3-(hydroxymethyl)pyrrolidin-1-yl)sulfonyl)-5-(trifluoromethyl)benzonitrile] | 7.00 to 8.00 |
| N#Cc1cc(C(F)(F)F)ccc1S(=O)(=O)N1C[C@H](S(=O)(=O)c2cc(F)c(F)c(F)c2)[C@](O)(CO)C1 [Example 94, 2-(((3R,4S)-3-hydroxy-3-(hydroxymethyl)-4-((3,4,5-trifluorophenyl)sulfonyl)pyrrolidin-1-yl)sulfonyl)-5-(trifluoromethyl)benzonitrile] | 7.00 to 8.00 |
| N#Cc1cc(F)c(S(=O)(=O)[C@H]2CN(S(=O)(=O)c3ccc(Cl)cc3Cl)C[C@@]2(O)CO)cc1F [Example 95, 4-(((3S,4R)-1-((2,4-dichlorophenyl)sulfonyl)-4-hydroxy-4-(hydroxymethyl)pyrrolidin-3-yl)sulfonyl)-2,5-difluorobenzonitrile] | 7.00 to 8.00 |
